Experimental findings from patent publication US20260193602A1, “CULTURE MEDIUM COMPOSITION” (AJINOMOTO CO., INC., priority 2023, published 2026) are described below.

Assay [1] concerns HEK293 (Viral Production Cells 2.0) producing AAV8. As to the kind of experiment: Production of AAV in HEK293 in suspension culture system (AAV8 genome titer by real-time PCR, viral particles by ELISA, full capsid ratio). Format: cell-based, human.
Assay [2] concerns HEK293 2.sus producing Human adenovirus 32. Conditions: Example 6; CDM4HEK293 with or without β-alanine; MOI 0.1.
Protocol: The entire volume is placed in a 50 ml tube, 29 mL of glutamine-containing 293 SFM II is added thereto and the cells are suspended. 5 mL of the cell suspension is placed in a Petri dish and culturing with shaking (50 rpm) is performed in a CO2 incubator (temperature setting: 37° C., CO2 concentration: 5%, model: MCO-170AICUV-PJ, Panasonic Healthcare Co., Ltd.) for 2-3 days. • (4) After culturing, the culture solution is recovered and transferred to a 15 mL centrifuge tube. • (5) Centrifugation is performed for 5 min (1000 rpm, 190×g, 24° C.) and the supernatant is removed. • (6) 1 ML of glutamine-containing 293 SFM II is added to the 15 mL centrifuge tube and the cells are resuspended. The cell number is measured using a hemocytometer and glutamine-containing 293 SFM II is added to 3×10^5 cells/mL. […] The cell number is measured using a hemocytometer and the culture solution is added to 3×10^5 cells/mL. […]

As to `NCCC(=O)O` [β-alanine], the “AAV8 genome titer (relative)” value in assay [1] (Example 1, β-alanine final concentration 100 μM, vs medium without β-alanine = 100%, FIG. 1) is recorded as “improvements”; in assay [1] (Example 2, β-alanine final concentration 100 μM, FIG. 3), “improvement”; in assay [1] (Example 2, β-alanine final concentration 300 μM, FIG. 3), “improvement”; in assay [1] (Example 5, β-alanine 300 μM alone, FIG. 8), “improved”. For the same compound, the “full capsid ratio (relative)” value in assay [1] (Example 1, β-alanine final concentration 100 μM, vs medium without β-alanine = 100%, FIG. 2) is reported as “improvements”; in assay [1] (Example 3, β-alanine final concentration 300 μM, FIG. 5), “improvement”. Also, the “virus count (capsid count (relative))” value in assay [1] (Example 3, β-alanine final concentration 300 μM, FIG. 4) was “increase”. Also, the adenovirus titer entry in assay [2] is “Improvement”.
Take `Cl.Cl.Cl.NCCCCNCCCN` [spermidine trihydrochloride]: the “AAV8 genome titer (relative)” value in assay [1] (Example 4, spermidine trihydrochloride final concentration 30 μM or 100 μM, FIG. 6) was “improvements”; in assay [1] (Example 5, spermidine trihydrochloride 200 μM alone, FIG. 8), “improved”. The “full capsid ratio (relative)” value in assay [1] (Example 4, spermidine trihydrochloride final concentration 30 μM or 100 μM, FIG. 7) is recorded as “improvements”.
